Results on six molecules are retold here after ChEMBL document CHEMBL1130984, “Substrate specificity of human prolyl-4-hydroxylase” (Bioorg Med Chem Lett, 1998).

Test [1] deals with T1, Transmembrane prolyl 4-hydroxylase (Homo sapiens, UniProt Q9NXG6).
T1 sequence (Q9NXG6 whole entry): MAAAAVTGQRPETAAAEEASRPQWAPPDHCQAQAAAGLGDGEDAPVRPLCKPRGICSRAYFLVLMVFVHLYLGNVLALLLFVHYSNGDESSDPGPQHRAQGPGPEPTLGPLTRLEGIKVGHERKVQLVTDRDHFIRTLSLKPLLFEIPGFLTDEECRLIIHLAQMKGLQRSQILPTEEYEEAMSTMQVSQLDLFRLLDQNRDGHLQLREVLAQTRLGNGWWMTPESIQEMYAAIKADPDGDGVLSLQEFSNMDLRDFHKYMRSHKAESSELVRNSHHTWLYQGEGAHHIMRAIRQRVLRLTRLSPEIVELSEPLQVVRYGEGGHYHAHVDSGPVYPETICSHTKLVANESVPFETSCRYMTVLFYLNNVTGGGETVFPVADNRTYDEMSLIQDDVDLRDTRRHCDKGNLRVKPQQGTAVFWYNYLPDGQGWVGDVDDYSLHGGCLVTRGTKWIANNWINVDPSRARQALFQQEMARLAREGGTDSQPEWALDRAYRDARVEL
Briefly: Compound was tested for inhibition of the enzyme human proline-4-hydroxylase; No inhibition.

The target in test [2] is T2, Transmembrane prolyl 4-hydroxylase (Homo sapiens) (UniProt Q9NXG6).
T2 sequence (whole entry): T1 sequence (Q9NXG6 whole entry)
Nature of the test: Compound was tested for substrate specificity of human proline-4-hydroxylase; Not a substrate.

The target of test [3] is T2, Transmembrane prolyl 4-hydroxylase (Homo sapiens). Briefly: Compound was tested for substrate specificity of human proline-4-hydroxylase; Substrate.

Turning to `CCOC(=O)CNC(=O)[C@@H]1C(Cl)CCN1C(=O)[C@H](Cc1ccccc1)NC(=O)CNC(=O)OCc1ccccc1` (stereo partly specified), the IC50 result in test [1] is on record as “Not Active”. The Activity result in test [2] was “Not a substrate”.

`CCOC(=O)CNC(=O)[C@@H]1C(F)CCN1C(=O)[C@H](Cc1ccccc1)NC(=O)CNC(=O)OCc1ccccc1` (stereo partly specified): the Activity result in test [3] was “Substrate”.

As to `CCOC(=O)CNC(=O)[C@@H]1CC(C)CN1C(=O)[C@H](Cc1ccccc1)NC(=O)CNC(=O)OCc1ccccc1` (stereo partly specified), in test [1], the IC50 result is given as “Not Active”. For the same molecule, the Activity result in test [2] is “Not a substrate”.

In the case of `CCOC(=O)CNC(=O)[C@@H]1C(Br)CCN1C(=O)[C@H](Cc1ccccc1)NC(=O)CNC(=O)OCc1ccccc1` (stereo partly specified), in test [1], the IC50 entry was “Not Active”. Besides, in test [2], the Activity result is “Not a substrate”.

With `CCOC(=O)CNC(=O)[C@H]1N(C(=O)[C@H](Cc2ccccc2)NC(=O)CNC(=O)OCc2ccccc2)CCC12CC2`, in test [1], the IC50 result is given as “Not Active”. Besides, the Activity entry in test [2] was “Not a substrate”.

Consider `CCOC(=O)CNC(=O)[C@@H]1C(C)CCN1C(=O)[C@H](Cc1ccccc1)NC(=O)CNC(=O)OCc1ccccc1` (stereo partly specified), for which the IC50 entry in test [1] is “Not Active”. Moreover, the Activity result in test [2] was “Not a substrate”.
